# According to PubChem BioAssay AID624003 (Vanderbilt Specialized Chemistry Center, 2012):
# Biological target: Phospholipase D1 (Homo sapiens) + Phospholipase D1 (Homo sapiens) (UniProt Q13393+Q13393)
# Test: PLD1 inhibition potency in cells, dose response, cell-based, Lib32, assay 2A (AID 624003)
# Conditions: cellular PLD1 activity assay
# Phospholipase D1 (Homo sapiens) + Phospholipase D1 (Homo sapiens), sequence (Q13393 whole entry, looked up): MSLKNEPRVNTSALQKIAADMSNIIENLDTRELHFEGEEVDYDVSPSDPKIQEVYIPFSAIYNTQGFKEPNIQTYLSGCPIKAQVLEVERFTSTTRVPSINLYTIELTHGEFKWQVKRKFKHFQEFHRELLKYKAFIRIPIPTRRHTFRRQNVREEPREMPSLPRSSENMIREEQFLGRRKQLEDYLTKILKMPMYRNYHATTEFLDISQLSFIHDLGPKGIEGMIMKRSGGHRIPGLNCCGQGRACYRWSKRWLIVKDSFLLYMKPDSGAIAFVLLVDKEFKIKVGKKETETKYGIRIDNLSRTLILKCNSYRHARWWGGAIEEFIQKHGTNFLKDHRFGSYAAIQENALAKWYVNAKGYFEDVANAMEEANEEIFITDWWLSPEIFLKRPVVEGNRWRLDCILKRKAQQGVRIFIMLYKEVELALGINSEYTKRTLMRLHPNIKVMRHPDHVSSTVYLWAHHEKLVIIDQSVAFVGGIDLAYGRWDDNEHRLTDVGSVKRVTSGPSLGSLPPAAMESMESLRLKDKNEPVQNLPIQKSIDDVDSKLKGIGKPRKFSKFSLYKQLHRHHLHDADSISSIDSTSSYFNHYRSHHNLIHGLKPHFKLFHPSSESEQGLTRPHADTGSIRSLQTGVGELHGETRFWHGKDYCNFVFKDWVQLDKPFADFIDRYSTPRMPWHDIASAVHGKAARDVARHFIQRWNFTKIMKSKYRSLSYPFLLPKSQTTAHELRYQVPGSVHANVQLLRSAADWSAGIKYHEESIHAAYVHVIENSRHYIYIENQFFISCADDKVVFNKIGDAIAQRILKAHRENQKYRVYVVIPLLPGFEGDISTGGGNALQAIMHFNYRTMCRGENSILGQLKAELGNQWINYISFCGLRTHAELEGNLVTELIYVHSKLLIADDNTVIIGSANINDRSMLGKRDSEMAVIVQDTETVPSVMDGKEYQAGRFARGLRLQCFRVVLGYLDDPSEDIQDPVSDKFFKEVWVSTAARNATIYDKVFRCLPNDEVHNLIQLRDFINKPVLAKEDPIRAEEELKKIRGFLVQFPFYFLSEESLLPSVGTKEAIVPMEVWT
# Phospholipase D1 (Homo sapiens) + Phospholipase D1 (Homo sapiens), sequence (Q13393 whole entry, looked up): as above
row,Structure (SMILES),IC50
1,C[C@@H](CN1CCC2(CC1)C(=O)NCN2c1cccc(F)c1)NC(=O)c1ccc(F)cc1,0.02 µM
2,C[C@@H](CN1CCC2(CC1)C(=O)NCN2c1cccc(F)c1)NC(=O)c1cccc([N+](=O)[O-])c1,0.122 µM
3,O=C(NCCN1CCC2(CC1)C(=O)NCN2c1cccc(F)c1)c1ccc(Br)cc1,1.54 µM
4,COc1cc(C(=O)N[C@@H](C)CN2CCC3(CC2)C(=O)NCN3c2cccc(F)c2)cc(OC)c1OC,0.022 µM
5,C[C@@H](CN1CCC2(CC1)C(=O)NCN2c1cccc(F)c1)NC(=O)c1cccc(F)c1,0.073 µM
6,COc1cc(C(=O)NCCN2CCC3(CC2)C(=O)NCN3c2cccc(F)c2)cc(OC)c1OC,4.32 µM
7,C[C@@H](CN1CCC2(CC1)C(=O)NCN2c1cccc(F)c1)NC(=O)c1ccc(F)cc1F,0.136 µM
8,C[C@@H](CN1CCC2(CC1)C(=O)NCN2c1cccc(F)c1)NC(=O)c1ccc(F)c(F)c1,0.086 µM
